Source: publication PMC7656694 (Biotechnology for Biofuels, 2020)
Positions count from the first letter of the chain named. Numbers in names are those of the source.

Key:
[1] = molecular target: T1, EcBdh (Enterobacter cloacae, UniProt G8FSA9); assay: NADH consumption at […] nm; type: biochemical; settings: 0.25 mM NADH, 25 mM acetoin, 100 mM potassium phosphate pH 7.0; racemic acetoin
T1 construct: gene dar; full length, N-terminal His6 and TEV site (cleavage not described), gene amplified from Z. mobilis strain BC-11B, expressed in Zymomonas mobilis 9C, purified
T1 sequence (G8FSA9 1-256): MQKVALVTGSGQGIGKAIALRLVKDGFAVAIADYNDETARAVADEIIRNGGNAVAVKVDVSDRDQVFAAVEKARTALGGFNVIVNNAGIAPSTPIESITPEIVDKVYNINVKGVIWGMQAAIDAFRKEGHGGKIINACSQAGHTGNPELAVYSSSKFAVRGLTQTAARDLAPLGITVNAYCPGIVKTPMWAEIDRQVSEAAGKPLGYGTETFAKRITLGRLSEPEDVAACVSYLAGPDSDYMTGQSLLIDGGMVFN

[2] = molecular target: T2, SmBdh (Serratia marcescens, UniProt H9XP47); assay: X-ray crystal structure, […] A; type: binding
T2 construct: gene budC; full length, N-terminal His6 and TEV site after start codon (cleavage not described), codon-optimized, expressed in Zymomonas mobilis 9C; tetramer, site completed by Gln247 of the symmetry-related chain
T2 sequence (H9XP47 2-251): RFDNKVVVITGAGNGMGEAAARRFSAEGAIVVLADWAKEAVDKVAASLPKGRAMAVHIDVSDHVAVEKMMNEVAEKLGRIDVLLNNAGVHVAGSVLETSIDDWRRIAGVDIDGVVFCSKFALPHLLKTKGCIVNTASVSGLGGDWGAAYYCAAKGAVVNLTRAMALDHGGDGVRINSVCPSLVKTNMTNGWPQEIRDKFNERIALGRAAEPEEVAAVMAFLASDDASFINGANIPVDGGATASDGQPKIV

[3] = molecular target: the molecule itself; assay: crystal structure

With `CC(=O)C(C)O` (racemic) [acetoin] the “NADH consumption at 340 nm” value [1] was “Proteins were expressed in the Z. mobilis 9C strain, purified to homogeneity”.

In the case of `CC(=O)[C@@H](C)O` [(3R)-acetoin], the “X-ray crystal structure, 2.0 A” value ([2]; NAD+ bound, active site of closed molecule A, modelled together with (3S)-acetoin from racemate) is reported as “both (3R)- and (3S)-acetoin molecules bound in the pocket”.

In the case of `CC(=O)[C@H](C)O` [(3S)-acetoin], the “X-ray crystal structure, 2.0 A” value ([2]; NAD+ bound, active site of closed molecule A, modelled together with (3R)-acetoin from racemate) is reported as “both (3R)- and (3S)-acetoin molecules bound in the pocket”.

In the case of `Nc1ncnc2c1ncn2[C@@H]1O[C@H](COP(=O)(O)OP(=O)(O)O)[C@@H](O)[C@H]1O` [ADP], the “X-ray crystal structure, 2.0 A” value ([2]; cofactor site of open molecule B, only NAD+ was added in crystallization) is reported as “the corresponding space is occupied by only adenine diphosphate”.

`NC(=O)C1=CN([C@@H]2O[C@H](COP(=O)(O)OP(=O)(O)OC[C@H]3O[C@@H](n4cnc5c(N)ncnc54)[C@H](O)[C@@H]3O)[C@@H](O)[C@H]2O)C=CC1` [NADH] was tested, and the “NADH consumption at 340 nm” value [1] was “subjected to activity analysis using the NADH consumption assay”.

`NC(=O)c1ccc[n+]([C@@H]2O[C@H](COP(=O)(O)OP(=O)(O)OC[C@H]3O[C@@H](n4cnc5c(N)ncnc54)[C@H](O)[C@@H]3O)[C@@H](O)[C@H]2O)c1` [NAD^+] was tested, and the “X-ray crystal structure, 2.0 A” value ([2]; cofactor site of closed molecule A, with acetoin) was “locate NAD ^+ cofactor molecule and acetoin molecules in protein molecule A”.

B1: Serratia marcescens 2,3-butanediol dehydrogenase, wild type (N-term SmBdh) (enzyme, UniProt H9XP47 1-251, looked up)
chain: MRFDNKVVVITGAGNGMGEAAARRFSAEGAIVVLADWAKEAVDKVAASLPKGRAMAVHIDVSDHVAVEKMMNEVAEKLGRIDVLLNNAGVHVAGSVLETSIDDWRRIAGVDIDGVVFCSKFALPHLLKTKGCIVNTASVSGLGGDWGAAYYCAAKGAVVNLTRAMALDHGGDGVRINSVCPSLVKTNMTNGWPQEIRDKFNERIALGRAAEPEEVAAVMAFLASDDASFINGANIPVDGGATASDGQPKIV
notes: tag and TEV site placed immediately after the start codon; also called WT SmBdh; WT SmBDH; source: Z. mobilis strain 9C, purified (HisTrap, size exclusion chromatography)
In the case of B1, the “stoichiometry N” value [3] is reported as 4.

B2: Serratia marcescens 2,3-butanediol dehydrogenase Q247A mutant (enzyme)
chain: B1 chain with Q247A
notes: also called SmBdh Q247A; Q247A SmBdh; source: Z. mobilis strain 9C, purified (HisTrap, size exclusion chromatography)
B2: binds [3].

B3: Serratia marcescens 2,3-butanediol dehydrogenase Q247A + V139Q double mutant (enzyme)
chain: B1 chain with V139Q, Q247A
notes: also called SmBdh Q247A + V139Q; Q247A + V139Q SmBdh; source: Z. mobilis strain 9C, purified (HisTrap, size exclusion chromatography)
B3: binds [3].
